Results taken from ChEMBL document CHEMBL1201862, “PubChem BioAssay data set” (2004).
Active and inactive are the calls of the source.

Key:
cells [1] = type: functional, cell-based
[2] = Luminescence Cell-Based Dose Retest to Confirm Inhibitors of Cancer Stem Cells. [Related pubchem assays (depositor defined):AID2717, AID2721]; type: functional; details: Homo sapiens
[3] = molecular target: T1, Nuclear receptor subfamily 0 group B member 1 (Homo sapiens, UniProt P51843); type: functional, cell-based;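 note: HEK293T cells transfected with SF-1 and DAX-1 plus StAR promoter luciferase reporter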
T1 sequence (P51843 whole entry): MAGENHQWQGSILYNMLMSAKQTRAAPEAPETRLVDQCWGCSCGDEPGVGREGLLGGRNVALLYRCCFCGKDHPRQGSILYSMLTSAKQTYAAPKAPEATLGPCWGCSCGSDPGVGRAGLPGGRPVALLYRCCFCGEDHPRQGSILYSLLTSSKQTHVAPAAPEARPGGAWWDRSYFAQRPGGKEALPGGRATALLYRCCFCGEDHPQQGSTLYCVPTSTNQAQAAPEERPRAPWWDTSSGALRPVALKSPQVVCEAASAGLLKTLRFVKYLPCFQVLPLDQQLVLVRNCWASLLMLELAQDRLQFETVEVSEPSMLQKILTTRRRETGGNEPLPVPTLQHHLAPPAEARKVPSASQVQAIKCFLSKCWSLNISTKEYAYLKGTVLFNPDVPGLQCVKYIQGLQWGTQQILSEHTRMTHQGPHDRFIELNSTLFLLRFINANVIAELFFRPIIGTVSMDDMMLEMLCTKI

[4] = molecular target: T2, Fructose-bisphosphate aldolase (Mycobacterium tuberculosis, UniProt P9WQA3); assay: Fluorescence-based biochemical high throughput dose response assay for inhibitors of the fructose-bisphosphate aldolase (FBA) of M. tuberculosis.; type: functional
T2 sequence (P9WQA3 whole entry): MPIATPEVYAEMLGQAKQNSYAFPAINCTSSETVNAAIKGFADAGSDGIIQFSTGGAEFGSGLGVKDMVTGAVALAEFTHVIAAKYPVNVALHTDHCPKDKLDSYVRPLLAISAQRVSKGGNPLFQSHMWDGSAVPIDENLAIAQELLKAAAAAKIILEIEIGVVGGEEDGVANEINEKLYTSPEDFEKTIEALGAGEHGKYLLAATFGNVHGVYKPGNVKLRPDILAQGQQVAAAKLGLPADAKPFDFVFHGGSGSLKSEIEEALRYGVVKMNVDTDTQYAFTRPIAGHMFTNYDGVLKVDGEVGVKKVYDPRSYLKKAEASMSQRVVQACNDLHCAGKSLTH

[5] = molecular target: Photoreceptor-specific nuclear receptor (Homo sapiens, UniProt Q9Y5X4); type: functional, cell-based;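 note: CHO-S cells with Gal4-NCOR and VP16-NR2E3 two-hybrid luciferase reporter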
Sequence of Photoreceptor-specific nuclear receptor (Q9Y5X4 whole entry, the tested form may be a part): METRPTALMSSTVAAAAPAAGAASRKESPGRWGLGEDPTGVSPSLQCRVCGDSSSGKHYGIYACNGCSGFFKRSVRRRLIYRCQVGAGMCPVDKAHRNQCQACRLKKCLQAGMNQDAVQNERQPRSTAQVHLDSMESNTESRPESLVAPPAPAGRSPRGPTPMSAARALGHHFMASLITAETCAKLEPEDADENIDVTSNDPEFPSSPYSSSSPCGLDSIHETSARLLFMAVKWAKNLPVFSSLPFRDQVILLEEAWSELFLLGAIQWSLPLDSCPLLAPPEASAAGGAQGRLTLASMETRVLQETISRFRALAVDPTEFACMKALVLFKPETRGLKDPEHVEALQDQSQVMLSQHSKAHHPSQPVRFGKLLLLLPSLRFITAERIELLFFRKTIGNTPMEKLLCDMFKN

[6] = molecular target: Nuclear receptor subfamily 5 group A member 2 (Homo sapiens, UniProt O00482); type: functional, cell-based;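 note: HEK293T cells transfected with LRH-1 and a StAR promoter luciferase reporter; potency for inhibitors that lower LRH-1 driven reporter light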
Sequence of Nuclear receptor subfamily 5 group A member 2 (O00482 whole entry): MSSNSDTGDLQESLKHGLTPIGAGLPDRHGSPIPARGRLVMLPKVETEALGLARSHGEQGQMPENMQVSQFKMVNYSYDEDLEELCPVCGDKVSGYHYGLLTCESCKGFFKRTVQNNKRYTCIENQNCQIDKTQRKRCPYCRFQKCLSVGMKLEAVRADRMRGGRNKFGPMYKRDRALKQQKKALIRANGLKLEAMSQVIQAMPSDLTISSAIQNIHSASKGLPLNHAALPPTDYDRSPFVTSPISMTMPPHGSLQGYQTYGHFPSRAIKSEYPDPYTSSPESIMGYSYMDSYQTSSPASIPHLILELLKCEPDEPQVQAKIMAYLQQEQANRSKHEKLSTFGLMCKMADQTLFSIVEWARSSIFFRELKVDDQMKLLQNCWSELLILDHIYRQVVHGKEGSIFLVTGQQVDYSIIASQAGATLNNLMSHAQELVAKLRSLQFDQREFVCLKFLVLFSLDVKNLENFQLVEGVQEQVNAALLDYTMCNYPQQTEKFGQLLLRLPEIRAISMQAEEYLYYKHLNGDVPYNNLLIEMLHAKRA

[7] = nonselective StAR promoter luciferase inhibitors – cell-based, luminescence, luciferase reporter, counter-screen for LRH-1 inverse agonist project, dose response (AID 651969); type: functional
Steroidogenic factor 1 = Steroidogenic factor 1 (Homo sapiens, UniProt Q13285); assay: Counterscreen for inverse agonists of the liver receptor homolog-1 (LRH-1; NR5A2): Luminescence-based cell-based high throughput dose response assay to identify inverse agonists of the Steroidogenic Factor 1 Nuclear Receptor (SF1; NR5A1).; type: functional
Sequence of Steroidogenic factor 1 (Q13285 whole entry): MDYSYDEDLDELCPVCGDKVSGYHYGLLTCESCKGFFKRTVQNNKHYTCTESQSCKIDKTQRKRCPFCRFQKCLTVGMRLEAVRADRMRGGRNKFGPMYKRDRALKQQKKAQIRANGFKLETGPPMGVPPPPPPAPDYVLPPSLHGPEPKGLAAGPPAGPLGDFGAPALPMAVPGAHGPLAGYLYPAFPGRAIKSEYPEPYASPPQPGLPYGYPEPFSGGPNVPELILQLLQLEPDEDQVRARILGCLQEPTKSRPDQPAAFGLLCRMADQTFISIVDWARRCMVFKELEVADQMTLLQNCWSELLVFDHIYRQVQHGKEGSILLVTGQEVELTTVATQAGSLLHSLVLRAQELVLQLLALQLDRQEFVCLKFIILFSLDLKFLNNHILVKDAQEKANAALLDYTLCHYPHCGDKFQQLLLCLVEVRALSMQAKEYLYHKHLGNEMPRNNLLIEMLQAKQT

Vero = assay: viability loss in Vero cells – cell-based, plate reader, cherry-pick samples, cytotoxicity control, dose response (AID 687020); type: functional; details: Chlorocebus sabaeus
[8] = molecular target: T3, High affinity choline transporter 1 (Homo sapiens, UniProt Q9GZV3); assay: human choline transporter blockers, potency – cell-based, 10-point CRC, membrane potential dye, dose response (AID 588401); type: functional;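 note: membrane potential dye fluorescence of choline-evoked depolarization via CHT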
T3 sequence (Q9GZV3 whole entry): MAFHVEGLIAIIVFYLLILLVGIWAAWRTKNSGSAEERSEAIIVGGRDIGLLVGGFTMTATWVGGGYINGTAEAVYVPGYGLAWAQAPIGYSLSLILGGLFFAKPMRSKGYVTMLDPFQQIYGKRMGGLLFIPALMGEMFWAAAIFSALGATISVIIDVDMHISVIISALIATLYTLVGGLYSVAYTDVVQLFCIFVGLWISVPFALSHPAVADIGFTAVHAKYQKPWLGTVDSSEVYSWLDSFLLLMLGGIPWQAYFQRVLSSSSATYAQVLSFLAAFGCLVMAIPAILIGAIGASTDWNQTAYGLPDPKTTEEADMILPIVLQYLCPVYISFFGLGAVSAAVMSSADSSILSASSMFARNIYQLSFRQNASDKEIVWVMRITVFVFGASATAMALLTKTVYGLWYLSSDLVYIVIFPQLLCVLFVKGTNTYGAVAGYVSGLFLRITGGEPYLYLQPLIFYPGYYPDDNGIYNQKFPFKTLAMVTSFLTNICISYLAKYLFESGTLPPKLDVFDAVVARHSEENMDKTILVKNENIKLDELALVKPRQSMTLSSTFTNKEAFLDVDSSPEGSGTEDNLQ

[9] = molecular target: T3, High affinity choline transporter 1; assay: human choline transporter blockers, potency – cell-based, 5-point CRC, membrane potential dye, dose response (AID 504840); type: functional
[10] = viability of uninfected HEp-2 cells – cell-based, HTS, cytotoxicity control for RSV inhibitor project, dose response (AID 2410); type: functional; details: human respiratory syncytial virus
[11] = viability of PTEN-deleted HCT116 cells – cell-based, HCT116 PTEN knockout, dose response (AID 1047); type: functional;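 note: HCT116 colon tumor cells with PTEN knocked out; cells exposed to compound for 60 hours before readout; potency for loss of cell viability measured by luminescence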
P388/ADR = assay: cells; type: functional; details: Mus musculus
SN12K1 = assay: cells; type: functional; details: Homo sapiens
P388 = assay: cells; type: functional; details: Mus musculus
Galanin receptor type 3 = molecular target: T4, Galanin receptor type 3 (Homo sapiens, UniProt O60755); assay: Fluorescence-based cell-based primary high throughput dose response assay to identify antagonists of the Galanin Receptor 3 (GalR3).; type: functional
T4 sequence (O60755 whole entry): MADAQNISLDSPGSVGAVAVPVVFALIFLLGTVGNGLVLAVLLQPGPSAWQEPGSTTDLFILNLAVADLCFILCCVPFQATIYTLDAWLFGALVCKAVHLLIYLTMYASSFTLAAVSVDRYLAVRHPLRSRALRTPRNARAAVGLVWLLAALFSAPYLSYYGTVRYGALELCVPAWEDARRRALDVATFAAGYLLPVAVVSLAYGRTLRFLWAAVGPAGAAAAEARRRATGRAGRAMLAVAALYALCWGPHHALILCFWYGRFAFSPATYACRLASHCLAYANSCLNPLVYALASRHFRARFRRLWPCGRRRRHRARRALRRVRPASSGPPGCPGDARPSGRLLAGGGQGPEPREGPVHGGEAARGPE

cells [12] = type: functional, cell-based; details: HEK-CNG
[13] = molecular target: T5, Ubiquitin-conjugating enzyme E2 N (Homo sapiens, UniProt P61088); type: functional;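 note: Dose-response confirmation in a TR-FRET assay detecting UBC13-driven polyubiquitin chain formation, inhibition measured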
T5 sequence (P61088 whole entry): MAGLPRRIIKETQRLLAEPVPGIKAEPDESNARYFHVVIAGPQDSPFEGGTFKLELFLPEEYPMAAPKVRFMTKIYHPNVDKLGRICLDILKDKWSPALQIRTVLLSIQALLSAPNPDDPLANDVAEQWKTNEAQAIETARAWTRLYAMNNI

CAAX prenyl protease 2 = molecular target: T6, CAAX prenyl protease 2 (Saccharomyces cerevisiae S288c, UniProt Q03530); type: biochemical
T6 sequence (Q03530 whole entry): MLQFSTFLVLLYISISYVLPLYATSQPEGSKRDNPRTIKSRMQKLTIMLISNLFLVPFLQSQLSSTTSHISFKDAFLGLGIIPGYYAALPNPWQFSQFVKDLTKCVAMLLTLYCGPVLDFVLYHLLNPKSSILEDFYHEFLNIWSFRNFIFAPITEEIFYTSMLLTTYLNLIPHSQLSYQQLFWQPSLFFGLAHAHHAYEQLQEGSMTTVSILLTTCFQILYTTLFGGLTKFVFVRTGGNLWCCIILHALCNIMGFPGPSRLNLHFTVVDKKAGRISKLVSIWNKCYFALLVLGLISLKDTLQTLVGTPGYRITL

[14] = molecular target: T7, Sentrin-specific protease 1 (Homo sapiens, UniProt Q9P0U3); assay: Dose response confirmation of small molecule inhibitors of the catalytic domain of the SUMO protease, SENP1 in a FRET assay.; type: functional; details: read-out: IC50_Mean
T7 sequence (Q9P0U3 whole entry): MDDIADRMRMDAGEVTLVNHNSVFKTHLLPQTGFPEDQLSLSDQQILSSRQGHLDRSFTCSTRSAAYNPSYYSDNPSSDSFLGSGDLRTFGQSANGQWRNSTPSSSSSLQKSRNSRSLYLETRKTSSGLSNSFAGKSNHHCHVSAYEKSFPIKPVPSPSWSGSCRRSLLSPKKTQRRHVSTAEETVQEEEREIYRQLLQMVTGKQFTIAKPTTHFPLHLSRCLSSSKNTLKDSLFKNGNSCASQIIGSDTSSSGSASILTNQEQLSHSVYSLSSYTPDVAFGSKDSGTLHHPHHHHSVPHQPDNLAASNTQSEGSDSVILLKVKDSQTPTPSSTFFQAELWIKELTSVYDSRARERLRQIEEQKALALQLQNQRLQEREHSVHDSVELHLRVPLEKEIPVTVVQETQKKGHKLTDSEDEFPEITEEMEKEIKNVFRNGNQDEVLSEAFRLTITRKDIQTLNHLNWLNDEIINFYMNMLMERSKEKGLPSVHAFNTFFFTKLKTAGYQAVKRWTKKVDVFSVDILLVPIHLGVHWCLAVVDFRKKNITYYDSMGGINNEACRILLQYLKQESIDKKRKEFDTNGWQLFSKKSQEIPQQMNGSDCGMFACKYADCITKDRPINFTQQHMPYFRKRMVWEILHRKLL

Cytochrome P450 2C9 = Cytochrome P450 2C9 (Homo sapiens, UniProt P11712)
Sequence of Cytochrome P450 2C9 (P11712 whole entry): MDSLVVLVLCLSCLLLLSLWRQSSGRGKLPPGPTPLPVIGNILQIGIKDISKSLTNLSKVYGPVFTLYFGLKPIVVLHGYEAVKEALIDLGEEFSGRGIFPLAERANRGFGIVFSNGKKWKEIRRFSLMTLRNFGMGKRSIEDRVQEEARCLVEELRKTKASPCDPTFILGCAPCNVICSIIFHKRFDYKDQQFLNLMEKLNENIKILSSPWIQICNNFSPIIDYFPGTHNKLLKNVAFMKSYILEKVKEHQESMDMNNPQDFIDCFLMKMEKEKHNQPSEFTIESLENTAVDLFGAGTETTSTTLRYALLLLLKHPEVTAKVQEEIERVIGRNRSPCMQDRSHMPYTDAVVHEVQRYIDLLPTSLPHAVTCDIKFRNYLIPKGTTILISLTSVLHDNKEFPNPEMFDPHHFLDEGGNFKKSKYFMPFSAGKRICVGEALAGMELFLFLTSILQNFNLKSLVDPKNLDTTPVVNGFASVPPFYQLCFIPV

[15] = loss of viability in HepG2 cells – cell-based, CellTiter-Glo, cherry-picked, cytotoxicity control for Shn3 inhibitor project, dose response (AID 624134); type: functional
[16] = reduction of Shn3 3'UTR-driven luciferase in osteoblasts – cell-based, Clone20 osteoblasts, firefly luciferase, cherry-picked, dose response (AID 624132); type: functional;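 note: firefly luciferase luminescence from reporter carrying the Shn3 3'UTR in osteoblasts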
[17] = non-specific 3'UTR reporter inhibition in Clone20-Shn3RL – cell-based, Renilla luciferase, cherry-picked, counter-screen for Shn3 inhibitor project, dose response (AID 624133); type: functional

Structure (SMILES): CCCCCCC[C@@H](C/C=C/CCC(=O)N(C)C/C(=C/Cl)C/C(=C\C(=O)N1CC(OC)=CC1=O)OC)OC
- IC50 (cells [1]): > 67.5 µM (inactive)
- AC50 [2]: 4.12 µM (active)
- IC50 [3]: > 0.278 µM (active)

Structure (SMILES): CCNC(=O)NC(=O)COC(=O)c1ccccc1SCC(=O)NC(=O)NCC
- IC50 [4]: 969 nM (active)

Structure (SMILES): COc1ccc(S(=O)(=O)N2CCCCC2)cc1N=C(S)Nc1ccccc1
- IC50 [5]: 1.22 µM (active)

Structure (SMILES): CCC(C)NC(=O)c1ccc2c(c1)N(Cc1ccccc1)C(=O)CS2 (centres undefined)
- IC50 [6]: 16.3 µM (inactive)
- IC50 [7]: 35.9 µM (inactive)
- IC50 (Steroidogenic factor 1): 5.68 µM (active)

Structure (SMILES): CCOC(=O)CC[C@H](NC(=O)Cn1cnc2c(OCc3ccccc3)ncnc21)C(=O)OCC
- AC50 (Vero): 36 µM (active)

Structure (SMILES): O=C1CCN(CCc2ccccc2)CCN1[C@H](COc1ccccc1)c1ccccc1
- AC50 (Vero): 21.8 µM (active)

Structure (SMILES): CCOc1ccc(NC(=O)COC(=O)COc2cccc3c2OC(C)(C)C3)cc1
- IC50 [6]: 15.5 µM (inactive)
- IC50 [7]: 35.9 µM (inactive)
- IC50 (Steroidogenic factor 1): 2.55 µM (active)

Structure (SMILES): CCNc1cc(Cl)nc(SC)n1
- IC50 [8]: 1.79 µM (active)
- IC50 [9]: 4.88 µM (active)

Structure (SMILES): C=CCNc1nc(Nc2ccc(-c3nc4ccccc4o3)cc2)nc(N2CCOCC2)n1
- IC50 [4]: 213 nM (active)
- CC50 [10]: 27.3 µM (active)
- EC50 [11]: 43.5 µM (active)

Structure (SMILES): N=C(N)NCCCCCCC(=O)NC(O)C(=O)NCCCCNCCCN (centres undefined)
- GI50 (P388/ADR): 55.2 µM (inactive)
- GI50 (SN12K1): 731 µM (inactive)
- GI50 (P388): 30.1 µM (inactive)

Structure (SMILES): CC(NCC#Cc1ccccc1)C(O)c1ccccc1 (centres undefined)
- IC50 (Galanin receptor type 3): > 29.9 µM (inactive)
- EC50 (cells [12]): > 29.9 µM (inactive)

Structure (SMILES): COc1ccc(NC(=O)c2sc(=O)n(Cc3cccc(C(F)(F)F)c3)c2C)cc1OC
- IC50 [5]: 13.9 µM (inactive)

Structure (SMILES): NC(=O)CCCn1c(C(=O)c2cc(Cl)c(N)c(Cl)c2)c2ccc(C(F)(F)F)cc2[n+]1[O-]
- IC50 [13]: > 20 µM (inactive)
- IC50 [8]: 4.22 µM (active)
- IC50 [9]: 4.47 µM (active)
- AC50 (CAAX prenyl protease 2): 3.5 µM (active)

Structure (SMILES): O=C1NC(=S)N/C1=C/c1cccc([N+](=O)[O-])c1O
- IC50 [14]: 37.4 µM (inactive)
- AC50 (Cytochrome P450 2C9): 12.6 µM (inconclusive)

Structure (SMILES): COc1cccc(NC(=O)[C@H](NC(=O)[C@@H]2Cc3ccccc3CN2)c2ccccc2)c1
- IC50 (cells [1]): > 67.5 µM (inactive)
- IC50 [3]: > 67.5 µM (inactive)

Structure (SMILES): CC(C)(Oc1ccc(Cl)cc1)C(=O)OCC(=O)NCCc1ccccc1
- IC50 [6]: 5.98 µM (active)
- IC50 [7]: 35.9 µM (inactive)
- IC50 (Steroidogenic factor 1): 6.16 µM (active)

Structure (SMILES): O=c1oc2ccccc2cc1-c1ccccc1
- IC50 [4]: 2780 nM (active)

Structure (SMILES): O=C1c2ccccc2/C(=C\c2ccc(Br)nc2)N1c1ccccc1
- AC50 (Vero): 38.8 µM (active)

Structure (SMILES): CCN(CC)S(=O)(=O)c1cc(NC(=O)CNc2cccc(S(=O)(=O)N3CCOCC3)c2)ccc1C
- IC50 (Galanin receptor type 3): 0.449 µM (active)
- AC50 [15]: 1.89 µM (active)
- AC50 [16]: 2.97 µM (active)
- AC50 [17]: 2.17 µM (active)
- EC50 (cells [12]): > 29.9 µM (inactive)

Structure (SMILES): CNC(=O)[C@H]1O[C@@H](n2cnc3c(NCc4cccc(I)c4)ncnc32)[C@H](O)[C@@H]1O [IB-MECA]
- IC50 [8]: 1.83 µM (active)
- IC50 [9]: 2.37 µM (active)
